{"source": "patent US20080269142A1", "about": "“ENDOGENOUS THIADIAZABICYCLO GLUTATHIONE-ADDUCT” (priority 2006, published 2008)", "test_system": "EA.hy 926 endothelial cells", "assay": "Apoptosis (morphological changes) in treated EA.hy 926 endothelial cells", "format": "cell-based", "experimental": "EA.hy 926 endothelial cells were incubated in DMEM (10 mL) containing 10% FBS, 100 unit/mL of penicillin, and 100 μg/mL of streptomycin at 37° C. in an atmosphere of 5% CO2. After the cells reached 70-80% confluence (approximately 2×10^6 cells), the complete DMEM was removed and replaced with FBS-free DMEM for treatment with dimethyl-TOG.\nAs the result, there was little accumulation of TOG in the cells. […] Therefore, high doses of dimethyl-TOG (100 μM and 200 μM) were chosen to detect an apoptosis-inducing effect. When the cells were treated with dimethyl-TOG, typical morphological changes of apoptosis, such as detachment from the substrate, shrinkage, and membrane blebbing were observed as early as 1 h after treatment.\nGGT mediates the first step of hydrolysis of extracellular GSH. The hydrolyzed amino acids will be transported back to the cells for GSH biosynthesis (4). Without GGT activity, there would be accumulation of GSH in the extracellular medium and depletion of intracellular GSH.", "data": [{"smiles": "CCCCCC(=O)/C=C/C=O", "note": "[ONE, 4-oxo-2(E)-nonenal]", "values": [{"measurement": "apoptosis after 8 h of incubation", "setting": "10 μM ONE, 8 h", "result": "most of the cells treated with 10 μM ONE went to complete apoptosis"}, {"measurement": "apoptosis-inducing effect", "setting": "ONE 1 μM alone", "result": "no apoptosis-inducing effect"}]}]}
